Data published in ChEMBL document CHEMBL1151819, “Unprecedented hemiketal cembranolides with anti-inflammatory activity from the soft coral Lobophytum durum” (2009).
Calls of active or inactive are those of the source. No cut-off for these calls is given here.

How the values were obtained:
RAW264.7 [1] = experiment: Antiinflammatory activity in LPS-stimulated mouse RAW264.7 cells assessed as reduction in iNOS protein expression at 10 uM by immunoblot analysis relative to control; type: functional; set-up: scale not given: the % may be the effect or the level left
RAW264.7 [2] = experiment: Antiinflammatory activity in LPS-stimulated mouse RAW264.7 cells assessed as reduction in COX2 protein expression at 10 uM by immunoblot analysis; type: functional; set-up: scale not given: the % may be the effect or the level left
Salmonella enteritidis = experiment: Antibacterial activity against Salmonella enteritidis ATCC 13076 at 100 ug/disk; type: functional, organism-based; settings: Salmonella enterica subsp. enterica serovar Enteritidis
Human betaherpesvirus 5 = experiment: Inhibition of HCMV endonuclease at 1 mg/mL

Activity (Human betaherpesvirus 5) | SMILES | Activity (RAW264.7 [1]) [%] | Activity (RAW264.7 [2]) | Activity (Salmonella enteritidis)
inactive | C=C1C(=O)O[C@@H]2C[C@H]1[C@]1(O)C/C(C)=C/CC/C(C)=C/CC[C@@]2(CO)O1 (relative stereo) [DURUMHEMIKETALOLIDE A] | 11 | 66.7% | inactive
inactive | C=C1C(=O)O[C@H]2C[C@H]1[C@]1(O)C/C(C)=C/CC/C(C)=C/CC[C@@]2(COC(C)=O)O1 (relative stereo) [DURUMHEMIKETALOLIDE B] | 6.4 | inactive | inactive
inactive | C=C1C(=O)O[C@H]2C[C@H]1[C@]1(O)C/C(C)=C/CC/C(C)=C/CC[C@]2(COC(C)=O)O1 (relative stereo) [DURUMHEMIKETALOLIDE C] | 0 | 34.7% | inactive
 | O=C(/C=C/c1ccc(O)c(O)c1)OCCc1ccccc1 [CAFFEIC ACID PHENETHYL ESTER] | 1.5 | 70.2% | 
